Measured values as given in PubChem BioAssay AID1963827 (Molecular Pharmacology Branch, DTP, NCI, 2024).

Tested on: 994946-033-R-J1-PDC complex spheroid viability
Assay: Anticancer human tumor 994946-033-R-J1-PDC patient-derived melanoma cell line growth inhibition [POLQ]
Settings: for IC50: curve of first compound; for viability, T/C: stronger effect = lower value
Experimental: Multicellular complex tumor spheroid response to Polymerase (POL) inhibitors (novobiocin, ART-558, RP6685) in combination with a variety of drugs and investigational agents in selected tumor cell lines
The POL inhibitors (novobiocin, ART-558, and RP6685) were evaluated both individually and in combination with standard of care and investigational anticancer small molecules within a complex spheroid model of solid tumors. . Complex spheroids include a stromal component modeled by human endothelial cells (HUVEC) and fibroblasts modeled by human mesenchymal stem cells (MSCs). The concentration ranges selected for each drug and investigational agent were based upon clinically achievable concentrations if the clinical Cmax of the agent was known.
Compounds. The drugs and investigational agents: novobiocin (NSC847541), ART-558 (NSC835418), RP-6685 (NSC848927), peposertib (NSC802822), ceralasertib (NSC780249), elimusertib (NSC800525), camonsertib (NSC841442), AZD-1390 (NSC803789), olaparib (NSC753686), talazoparib (NSC767125), rucaparib (NSC756644), sotorasib (NSC818433), MRTX-1133 (NSC836407), SN-38 (NSC673596), topotecan (NSC609699), epotoside (NSC141540), doxorubicin (NSC123127), gemcitabine (NSC613327), 5-fluorouracil (NSC19893), paclitaxel (NSC125973), vemurafenib (NSC761431), MSA-2 (NSC828583), SN-011 (NSC837082), adavosertib (NSC754352), prexasertib (NSC758257), carboplatin (NSC241240) and oxaliplatin (NSC266046), were obtained from the National Cancer Institute (NCI) Developmental Therapeutics Program Chemical Repository (21). The FDA-approved anticancer drug set is available from the Developmental Therapeutics Program at https://dtp.cancer.gov/organization/dscb/obtaining/. […] The stock solutions were prepared in dimethyl sulfoxide (DMSO, Sigma-Aldrich, St. Louis, MO, cat. D2650), except for the platinum compounds which were prepared in saline (Quality Biological, Gaithersburg, MD, cat. 114-055-101), at 800-fold the tested concentration and stored at -70 degrees C prior to their use. All drugs and investigational agents were tested over a range starting from a high concentration at or near the clinical Cmax and decreasing in half-log increments. If the clinical Cmax for an agent had not been determined, the highest concentration tested was 10 microM, except for SN-38, which was tested at a high concentration of 1 microM.
Cell Culture. All cells were maintained in an incubator at 37 degrees C and 5% CO2 with 95% humidity. The PDC lines were cultured according to standard operating procedures established by the NCI PDMR (https://pdmr.cancer.gov). Table 3 of the manuscript, lists the cell lines along with the number of the three cell types plated to form the mct-spheroids and media for tumor cell growth. After thawing, all PDC lines, except 997537-175-T-J1-PDC and 415267-285-R-J2-PDC, were cultured in Matrigel-coated flasks prepared with a working solution of 1X Ham's F-12 nutrient mix, without supplementation (Thermo Fisher Scientific, cat. 11765054), 100 U/mL penicillin-streptomycin (Thermo Fisher Scientific, cat. 15140122), and 2.5% Matrigel (Corning Inc., Corning, NY, cat. 354248) for the first three passages. The two PDC lines 997537-175-T-J1-PDC and 415267-285-R-J2-PDC were cultured on uncoated flasks. The 857933-349-R-J2-PDC line was cultured in 6C/Colon 1B media containing advanced DMEM/F-12 (Thermo Fisher Scientific, cat. 12634028), 10 mM HEPES (Thermo Fisher Scientific, cat. 15630080), 1X GlutaMAX supplement (Thermo Fisher Scientific, cat. 35050061), 0.1 mg/mL primocin (InvivoGen, San Diego, CA, cat. ant-pm-2), 10% defined fetal bovine serum, heat inactivated (HyClone Laboratories Inc., Logan, UT, cat. SH30070.03HI), 50% L-WRN conditioned media (ATCC, cat. CRL-3276), 1.25 mM N-Acetyl-L-cysteine (Sigma-Aldrich, cat. A9165), 10 mM nicotinamide (Sigma-Aldrich, cat. N0636), 1X B-27 supplement (Thermo Fisher Scientific, cat. 17504044), 1X N-2 supplement (Thermo Fisher Scientific, cat. […]
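Note: spheroids exposed to drugs for 7 days.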
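Throughout, for viability, T/C: 100% = DMSO vehicle treated spheroids.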

COc1cccc(OCCCN)c1-c1cc(Nc2cnc(C#N)cn2)n[nH]1 + Nc1ccc(C#CCN(C(=O)Cc2ncc(C(F)(F)F)cc2C(F)(F)F)c2ccc(F)cc2)nn1
IC50 (second compound 0.0316 µM): 0.025 µM | IC50 (second compound 0.1 µM): 0.0235 µM | IC50 (second compound 0.316 µM): 0.0171 µM | IC50 (second compound 1 µM): 0.0161 µM | IC50 (second compound 3.16 µM): 0.0237 µM | IC50 (second compound 10 µM): 0.0197 µM | viability, T/C (second compound 0.0316 µM, first compound 0.00316 µM): 71% | viability, T/C (second compound 0.0316 µM, first compound 0.01 µM): 66.9% | viability, T/C (second compound 0.0316 µM, first compound 0.0316 µM): 34.4% | viability, T/C (second compound 0.0316 µM, first compound 0.1 µM): 49% | viability, T/C (second compound 0.0316 µM, first compound 0.316 µM): 14.3% | viability, T/C (second compound 0.0316 µM, first compound 1 µM): 17.4% | viability, T/C (second compound 0.1 µM, first compound 0.00316 µM): 86.9% | viability, T/C (second compound 0.1 µM, first compound 0.01 µM): 69.2% | viability, T/C (second compound 0.1 µM, first compound 0.0316 µM): 38.4% | viability, T/C (second compound 0.1 µM, first compound 0.1 µM): 39.4% | viability, T/C (second compound 0.1 µM, first compound 0.316 µM): 25% | viability, T/C (second compound 0.1 µM, first compound 1 µM): 24.3% | viability, T/C (second compound 0.316 µM, first compound 0.00316 µM): 92.2% | viability, T/C (second compound 0.316 µM, first compound 0.01 µM): 66.1% | viability, T/C (second compound 0.316 µM, first compound 0.0316 µM): 31.9% | viability, T/C (second compound 0.316 µM, first compound 0.1 µM): 19.9% | viability, T/C (second compound 0.316 µM, first compound 0.316 µM): 25.6% | viability, T/C (second compound 0.316 µM, first compound 1 µM): 15.7% | viability, T/C (second compound 1 µM, first compound 0.00316 µM): 80.1% | viability, T/C (second compound 1 µM, first compound 0.01 µM): 60.7% | viability, T/C (second compound 1 µM, first compound 0.0316 µM): 34.6% | viability, T/C (second compound 1 µM, first compound 0.1 µM): 24.4% | viability, T/C (second compound 1 µM, first compound 0.316 µM): 17.6% | viability, T/C (second compound 1 µM, first compound 1 µM): 19% | viability, T/C (second compound 3.16 µM, first compound 0.00316 µM): 94.6% | viability, T/C (second compound 3.16 µM, first compound 0.01 µM): 66.6% | viability, T/C (second compound 3.16 µM, first compound 0.0316 µM): 47.5% | viability, T/C (second compound 3.16 µM, first compound 0.1 µM): 24.2% | viability, T/C (second compound 3.16 µM, first compound 0.316 µM): 28.7% | viability, T/C (second compound 3.16 µM, first compound 1 µM): 19.9% | viability, T/C (second compound 10 µM, first compound 0.00316 µM): 100% | viability, T/C (second compound 10 µM, first compound 0.01 µM): 64.5% | viability, T/C (second compound 10 µM, first compound 0.0316 µM): 30.5% | viability, T/C (second compound 10 µM, first compound 0.1 µM): 44.3% | viability, T/C (second compound 10 µM, first compound 0.316 µM): 30.3% | viability, T/C (second compound 10 µM, first compound 1 µM): 19.1%
